Reference: ChEMBL document CHEMBL2311427, “Bioactive barrigenol type triterpenoids from the leaves of Xanthoceras sorbifolia Bunge” (Eur J Med Chem, 2013)

How the values were obtained:
Type in all cases: functional, cell-based
HeLa = assay: Antitumor activity against human HeLa cells assessed as growth inhibition measured after 48 hrs by MTT assay
MCF7 = assay: Antitumor activity against human MCF7 cells assessed as growth inhibition measured after 48 hrs by MTT assay; conditions: MCF7, 48 h
HepG2 = assay: Antitumor activity against human HepG2 cells assessed as growth inhibition measured after 48 hrs by MTT assay; conditions: HepG2, 48 h

Row | Structure (SMILES) | IC50 (HeLa) [µM] | IC50 (MCF7) [µM] | IC50 (HepG2) [µM]
1 | C/C=C(/C)C(=O)O[C@H]1[C@H](OC(=O)/C(C)=C\C)[C@]2(CO)[C@H](O)[C@H](O)[C@]3(C)C(=CC[C@@H]4[C@@]5(C)CC[C@H](O[C@@H]6O[C@H](C(=O)OC)[C@@H](O)[C@H](O)[C@H]6O[C@@H]6O[C@H](CO)[C@@H](O)[C@H](O)[C@H]6O)C(C)(C)[C@@H]5CC[C@]43C)[C@@H]2CC1(C)C | 81.6 | > 100 | 43.7
2 | Oc1ccc(/C=C/c2cc(O)cc(O)c2)cc1 [RESVERATROL] | 58.9 | > 100 | > 100
3 | C[C@@H]1O[C@@H](O[C@H]2[C@H](OC[C@@]34CC[C@]5(C)C(=CC[C@@H]6[C@@]7(C)CC[C@H](O[C@@H]8O[C@H](CO[C@@H]9O[C@H](CO)[C@@H](O)[C@H](O)[C@H]9O)[C@@H](O)[C@H](O)[C@H]8O)C(C)(C)[C@@H]7CC[C@]65C)[C@@H]3CC(C)(C)[C@@H](O)[C@@H]4O)O[C@H](CO)[C@@H](O)[C@@H]2O)[C@H](O)[C@H](O)[C@H]1O | 18.8 | 25.4 | 31.5
4 | C[C@@H]1O[C@@H](O[C@H]2[C@H](OC[C@@]34CC[C@]5(C)C(=CC[C@@H]6[C@@]7(C)CC[C@H](O[C@@H]8O[C@H](CO[C@@H]9O[C@H](CO)[C@@H](O)[C@H](O)[C@H]9O)[C@@H](O)[C@H](O)[C@H]8O)C(C)(C)[C@@H]7CC[C@]65C)[C@@H]3CC(C)(C)[C@@H](O)[C@@H]4O)O[C@H](CO[C@@H]3O[C@H](CO)[C@@H](O)[C@H](O)[C@H]3O)[C@@H](O)[C@@H]2O)[C@H](O)[C@H](O)[C@H]1O [XANIFOLIA O54] | 3.98 | 7.29 | 7.25
5 | COc1cc([C@@H]2c3cc4c(cc3[C@@H](O[C@@H]3O[C@@H]5CO[C@@H](C)O[C@H]5[C@H](O)[C@H]3O)[C@H]3COC(=O)[C@H]23)OCO4)cc(OC)c1O [ETOPOSIDE] | 8.32 | 59.8 | 9.14
6 | C/C=C(/C)C(=O)O[C@H]1[C@H](O[C@H]2CC[C@]3(C)[C@H]4CC=C5[C@@H]6CC(C)(C)[C@@H](O)[C@H](O)[C@]6(CO[C@@H]6O[C@H](CO[C@@H]7O[C@H](CO)[C@@H](O)[C@H](O)[C@H]7O)[C@@H](O)[C@H](O)[C@H]6O[C@@H]6O[C@@H](C)[C@H](O)[C@@H](O)[C@H]6O)CC[C@@]5(C)[C@]4(C)CC[C@H]3C2(C)C)O[C@H](CO[C@@H]2O[C@H](CO)[C@@H](O)[C@H](O)[C@H]2O)[C@@H](O)[C@@H]1O | > 100 | > 100 | > 100
7 | O=c1[nH]cc(F)c(=O)[nH]1 [FLUOROURACIL] | 14.8 | > 100 | > 100
8 | C/C=C(/C)C(=O)O[C@@H]1[C@@H](O)[C@H](O[C@H]2CC[C@]3(C)[C@H]4CC=C5[C@@H]6CC(C)(C)[C@@H](O)[C@H](O)[C@]6(CO[C@@H]6O[C@H](CO[C@@H]7O[C@H](CO)[C@@H](O)[C@H](O)[C@H]7O)[C@@H](O)[C@H](O)[C@H]6O[C@@H]6O[C@@H](C)[C@H](O)[C@@H](O)[C@H]6O)CC[C@@]5(C)[C@]4(C)CC[C@H]3C2(C)C)O[C@H](CO[C@@H]2O[C@H](CO)[C@@H](O)[C@H](O)[C@H]2O)[C@H]1O | > 100 | > 100 | > 100
9 | C/C=C(/C)C(=O)O[C@H]1[C@H](OC(=O)/C(C)=C\C)[C@]2(CO)[C@H](O)[C@H](O)[C@]3(C)C(=CC[C@@H]4[C@@]5(C)CC[C@H](O[C@@H]6O[C@H](CO[C@@H]7O[C@H](CO)[C@@H](O)[C@H](O)[C@H]7O)[C@@H](O)[C@H](O)[C@H]6O[C@@H]6O[C@@H](CO)[C@H](O)[C@H]6O)C(C)(C)[C@@H]5CC[C@]43C)[C@@H]2CC1(C)C | 7.56 | 9.62 | 9.21
10 | CC(=O)O[C@H]1C(=O)[C@@]2(C)[C@H]([C@H](OC(=O)c3ccccc3)[C@]3(O)C[C@H](OC(=O)[C@H](O)[C@@H](NC(=O)c4ccccc4)c4ccccc4)C(C)=C1C3(C)C)[C@]1(OC(C)=O)CO[C@@H]1C[C@@H]2O [PACLITAXEL] |  | 77.2 | 61.8
